This passage reports IC50 results from ChEMBL document CHEMBL1136912, “Synthesis and in vivo influenza virus-inhibitory effect of ester prodrug of 4-guanidino-7-O-methyl-Neu5Ac2en” (Bioorg Med Chem Lett, 2009).

This assay is described as follows: Inhibition of Tamiflu-resistant Influenza A virus (A/Yokohama/67/2006 (H1N1)) sialidase.

`CC(=O)N[C@H]1[C@H]([C@H](O)[C@H](O)CO)OC(C(=O)O)=C[C@@H]1NC(=N)N` [ZANAMIVIR] yielded an IC50 of 3.05 nM.

The compound `CO[C@@H]([C@@H]1OC(C(=O)O)=C[C@H](NC(=N)N)[C@H]1NC(C)=O)[C@H](O)CO` [LANINAMIVIR] registered a concentration for half-maximal inhibition (IC50) of 5.62 nM.

One may read the IC50 as the concentration at which inhibition is half-maximal. A low value points to greater potency.
